# Test system: B16-F10 melanoma cells
# Test: melanin content analysis in α-MSH-treated B16-F10 melanoma cells
# Assay type: cell-based
# Details: co-treatment with 500 nM α-MSH; positive control, concentration not given; FIG. 6
# Procedure: Further, in the present embodiment, an ability of the Hibiscus sabdariffa L. ‘TAITUNG NO. 6’ extract to inhibit melanin production is evaluated by a melanin content analysis, and a method thereof is as follows. B16-F10 melanoma cells (1×10^5) are seeded in a 24-well culture plate and treated with 500 nM α-melanocyte stimulating hormone (α-MSH) at 37° C. for 24 hours. Then, these cells are treated with various concentrations of the Hibiscus sabdariffa L. ‘TAITUNG NO. 6’ extract for 48 hours, and are treated with trypsin after being rinsed with PBS. A cell pellet is collected by centrifugation at 10,000 g for 20 minutes at a room temperature, and is then lysed with 1N NaOH for 60 minutes. The melanin content is analyzed by comparing an absorbance value of a test sample at 405 nm with a standard curve obtained by using a synthetic melanin.
structure (smiles),measurement,value
O=c1cc(CO)occ1O [kojic acid],melanin content of the melanoma cells,significantly decreased
